These results are taken from patent publication US12391686B2, “Compounds and uses thereof” (Foghorn Therapeutics Inc., priority 2019, dated 2025).

SMILES strings stand for the structures.

Assay [1] concerns synovial sarcoma cell lines (SYO1, Yamato, HS-SY-II, and ASKA). The assay is described as follows: Growth of synovial sarcoma cell lines (IncuCyte confluency, crystal violet, colony imaging), Example 3. The format is cell-based. Particulars: 1 μM or indicated doses, FIGS. 5, 6, 7. The protocol:
(§1) Procedures: Cells were treated with DMSO or the BRD9 degrader, Compound 1, at indicated concentrations, and proliferation was monitored from day 7 to day 14 by measuring confluency over time using an IncuCyte live cell analysis system (FIG. 5). Growth medium and compounds were refreshed every 3-4 days.
(§2) Cells were seeded into 12-well plates and treated with DMSO, 1 μM BRD9 inhibitor, Compound 2 (also known as BI-7273, see Martin et al, J Med Chem. 59(10):4462-4475 (2016); see structure of Compound 2 below), or 1 μM BRD9 degrader, Compound 1.
(§3) The number of cells was optimized for each cell line. Growth medium and compounds were refreshed every 3-5 days. SYO1, Yamato, A549, 293T and HS-SY-II cells were fixed and stained at day 11. ASKA cells were fixed and stained at day 23. Staining was done by incubation with crystal violet solution (0.5 g Crystal Violet, 27 ml 37% Formaldehyde, 100 mL 10×PBS, 10 mL Methanol, 863 dH2O to 1 L) for 30 min followed by 3× washes with water and drying the plates for at least 24 h at room temperature. Subsequently plates were scanned on an Odyssey CLx Imaging system (FIG. 6).
(§4) Cells were seeded into 96-well ultra low cluster plate (Costar, #7007) in 200 μL complete media and treated at day 2 with DMSO, Staurosporin, or BRD9 degarder, Compound 1, at indicated doses (FIG. 7). Media and compounds were changed every 5 d and cell colonies were imaged at day 14.

The test system of assay [2] is non-synovial control cancer cell lines (293T, A549, G401). The assay is described as follows: Growth of non-synovial control cancer cell lines, Example 3. Particulars: FIGS. 5, 6, 7. The format is cell-based. On the procedure:
as §1, §2, §3, §4

The test system of assay [3] is synovial sarcoma cell lines (SYO1, HS-SY-II, and ASKA). Kind of assay: Crystal violet growth assay in synovial sarcoma cell lines, Example 4. The format is cell-based. To be noted: for inhibition of the growth of the cells: SYO1, HS-SY-II, ASKA, treated daily, day 14, FIG. 8. On the procedure:
(§5) Procedure: Cells were seeded into 6-well or 12-well plates and were treated daily with a BRD9 degrader (Compound 1), a bromo-domain BRD9 binder (Compound 2), E3 ligase binder (lenalidomide), DMSO, or staurosporin (positive control for cell killing), at indicated concentrations. The number of cells was optimized for each cell line. Growth media was refreshed every 5 days. By day 14, medium was removed, cells were washed with PBS, and stained using 500 μL of 0.005% (w/v) crystal violet solution in 25% (v/v) methanol for at least 1 hour at room temperature. Subsequently plates were scanned on an Odyssey CLx Imaging system.

The subject of assay [4] is non-synovial control cancer cell lines (RD, HCT116, and Calu6). The assay is described as follows: Crystal violet growth assay in non-synovial control cancer cell lines, Example 4. The format is cell-based. Particulars: treated daily, day 14, FIG. 9. The protocol: as §5
Assay [5] deals with SYO1 cells. Kind of assay: Cell cycle analysis (Click-iT Plus EdU Flow Cytometry Assay). The format is cell-based. Particulars: 200 nM or 1 μM, 8 or 13 days, as compared to DMSO and lenalidomide. On the procedure: (§6) Procedure: SYO1 cells were treated for 8 or 13 days with DMSO, a BRD9 degrader (Compound 1) at 200 nM or 1 μM, or an E3 ligase binder (lenalidomide) at 200 nM. Compounds were refreshed every 5 days. Cell cycle analysis was performed using the Click-iT™ Plus EdU Flow Cytometry Assay (Invitrogen). The apoptosis assay was performed using the Annexin V-FITC Apoptosis Detection Kit (Sigma A9210). Assays were performed according to the manufacturer's protocol.
For orientation: Flow cytometry measures light scatter and fluorescence of single cells or particles in a stream.

The test system of assay [6] is SYO1 cells. Kind of assay: Apoptosis assay (Annexin V-FITC Apoptosis Detection Kit). It counts as cell-based. To be noted: 200 nM or 1 μM, 8 days, as compared to DMSO controls. On the procedure:
as §6

Assay [7] has as its target T1, BRD9 bromodomain (Flag-BRD9 P133-K239; Swiss Prot Q9H8M2) (Homo sapiens, UniProt Q9H8M2).
T1 construct: His-Flag-BRD9 (P133-K239); Swiss Prot Q9H8M2; His6 with TEV site (mgsshhhhhhenlyfq/) (N, cleaved yes); made in house
T1 sequence (Q9H8M2 133-239): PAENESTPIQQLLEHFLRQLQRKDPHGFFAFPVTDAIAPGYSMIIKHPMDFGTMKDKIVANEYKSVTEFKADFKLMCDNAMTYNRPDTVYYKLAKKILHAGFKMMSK
The assay is described as follows: BRD9 Bromodomain TR-FRET Competition Binding Assay. To be noted: competition with biotinylated BRD9 ligand; 90 minutes at room temperature. In a few lines:
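Tag-cleaved Flag-BRD9 (P133-K239) at 3 nM final displacing 3.75 nM biotinylated ligand, with 7.5 nM APC-streptavidin and 0.2 nM Eu-anti-FLAG, in 50 mM HEPES pH 7.4, 50 mM NaCl, 1 mM TCEP, 0.01% Tween-20, 0.01% BSA. Read after 90 min at room temperature as 665/615 nm ratio.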
(Time-resolved FRET reads energy transfer from a long-lived donor to a nearby acceptor.)

Assay [8] addresses T2, Nanoluciferase-BRD9 fusion protein (3×FLAG-NLuc-BRD9) in SYO-1 cells (Homo sapiens, UniProt Q9H8M2).
T2 construct: expressed in transfected cells; host or cells: SYO-1
T2 sequence (Q9H8M2 1-597): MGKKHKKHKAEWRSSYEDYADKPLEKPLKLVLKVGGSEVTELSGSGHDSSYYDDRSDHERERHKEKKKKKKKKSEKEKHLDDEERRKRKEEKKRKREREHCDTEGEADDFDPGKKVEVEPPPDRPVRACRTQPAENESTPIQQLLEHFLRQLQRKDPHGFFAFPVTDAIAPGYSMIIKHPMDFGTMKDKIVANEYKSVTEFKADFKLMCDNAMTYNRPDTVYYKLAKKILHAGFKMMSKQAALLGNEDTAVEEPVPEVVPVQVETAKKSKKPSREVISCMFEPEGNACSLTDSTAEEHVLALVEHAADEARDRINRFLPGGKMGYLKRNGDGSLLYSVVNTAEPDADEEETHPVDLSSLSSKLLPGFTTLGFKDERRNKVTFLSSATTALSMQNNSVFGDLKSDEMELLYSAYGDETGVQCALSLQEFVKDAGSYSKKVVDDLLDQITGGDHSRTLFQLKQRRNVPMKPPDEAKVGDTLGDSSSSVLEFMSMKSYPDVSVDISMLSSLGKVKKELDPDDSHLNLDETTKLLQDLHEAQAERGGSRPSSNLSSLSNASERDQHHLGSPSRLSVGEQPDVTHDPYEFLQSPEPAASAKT
Kind of assay: SYO1 BRD9 NanoLuc Degradation Assay. The format is cell-based. To be noted: 6 hours; SYO-1 cells expressing 3×FLAG-NLuc-BRD9; top dose 1 μM; read-out: SYO1 BRD9-NanoLuc degradation IC50. The method, boiled down:
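Stable 3×FLAG-NLuc-BRD9 SYO-1 line, 8000 cells/well, dosed day 1 with 10-point 3-fold dilutions (1 μM final top, duplicates) for 6 h. NanoLuc bioluminescence read with Nano-Glo; % inhibition relative to DMSO (high) and 1 μM reference BRD9 degrader (low) controls.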

For the molecule `COc1cc(-c2cn(C)c(=O)c3cnccc23)cc(OC)c1CN(C)C` [Compound 2], the “inhibition of the growth of the cells” value is reported as “inhibition of the growth of the cells” in assay [1], “does not result in inhibition of the growth” in assay [2], “inhibition of the growth of the cells” in assay [3] and “did not result in inhibition of the growth” in assay [4].

`COc1cc(-c2cn(C)c(=O)c3cnccc23)cc(OC)c1CN(C)CC(=O)NCCOCCOCCNc1cccc2c1C(=O)N(C1CCC(=O)NC1=O)C2=O` (stereo not shown) [Compound 1]: the “inhibition of the growth of the cells” value in assay [1] is reported as “inhibition of the growth of the cells”; in assay [2], “does not result in inhibition of the growth”; in assay [3], “inhibition of the growth of the cells”; in assay [4], “did not result in inhibition of the growth”. The “growth inhibition compared with the other treatments” value in assay [3] (all synovial cell lines, versus Compound 2 and lenalidomide) is given as “most significant growth inhibition”. Further, in the assay on SYO1 cells [5], the “numbers of cells in the S-phase of the cell cycle” value is given as “reduced numbers of cells in the S-phase”. In the assay on SYO1 cells [6], the “numbers of early- and late-apoptotic cells” value is “increased numbers of early- and late-apoptotic cells”.

As for `COc1cc(-c2cn(C)c(=O)c3cnc(NCCCCCCCCNC(=O)COc4cccc5c4C(=O)N(C4CCC(=O)NC4=O)C5=O)cc23)cc(OC)c1CN(C)C` (stereo not shown) [Compound D5, N-[8-[(5-[4-[(dimethylamino)methyl]-3,5-dimethoxyphenyl]-7-methyl-8-oxo-2,7-naphthyridin-3-yl)amino]octyl]-2-[[2-(2,6-dioxopiperidin-3-yl)-1,3-dioxoisoindol-4-yl]oxy]acetamide formic acid], in assay [7], the IC50 (usually the concentration that inhibits the measured activity by half) is no less than 10 nM. For the same molecule, in assay [8], the DC50 is no less than 100 nM.
